Test results from US4341766A, “Deactivation of antibiotic-hydrolyzing enzymes” (priority 1980, dated 1982).
Like-named read-outs stand apart in the source and are kept apart here.

Experiments:
E. coli RTEM β-lactamase [1] = molecular target: T1, E. coli RTEM β-lactamase (Escherichia coli, UniProt P62593); assay: in vitro treatment of E. coli RTEM β-lactamase (deactivation); assay type: biochemical; conditions: for t1/2 for deactivation: in vitro, E. coli RTEM β-lactamase; for comparative efficacy as β-lactamase deactivating agent: in words, comparison of the four compounds of Table I; for turnovers before deactivation: number of molecules of compound needed to inactivate one β-lactamase molecule
T1 construct: mature periplasmic enzyme

E. coli RTEM β-lactamase [2] = molecular target: T1, E. coli RTEM β-lactamase; assay: rate constant (kcat) of the corresponding N-acyl derivative of 6-aminopenicillanic acid as β-lactamase substrate; assay type: biochemical
Excerpt: We believe the acyl-enzyme intermediates either deacylate (resulting in the undesirable restoration of the lactamase) or fragment (resulting in the desirable deactivation of the lactamase). […] This can be achieved by employing an N-acyl derivative of 6-aminopenicillanic acid sulfone in which the corresponding N-acyl derivative of 6-aminopenicillanic acid is a very poor substrate for β-lactamase. Since the rate constant (kcat) of an N-acyl derivative of 6-aminopenicillanic acid is a measure of its ability to act as a substrate, this constant provides the basis for defining the class of sulfones used in the invention.
Quinacillin sulfone's effectiveness is shown both by the low inactivation time, and by the low number of turnovers before inactivation (the low number of molecules of quinacillin sulfone needed to inactivate one β-lactamase molecule).

T1 sequence (P62593 24-286 limits assumed): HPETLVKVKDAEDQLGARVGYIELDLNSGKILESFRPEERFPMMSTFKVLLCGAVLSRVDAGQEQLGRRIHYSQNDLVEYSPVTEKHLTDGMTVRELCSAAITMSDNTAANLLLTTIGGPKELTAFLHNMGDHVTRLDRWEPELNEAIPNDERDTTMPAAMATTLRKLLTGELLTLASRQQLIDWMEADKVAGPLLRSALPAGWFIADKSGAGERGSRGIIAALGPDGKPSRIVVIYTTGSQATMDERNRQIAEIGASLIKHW

SMILES	t1/2 for deactivation (E. coli RTEM β-lactamase [1])	comparative efficacy as β-lactamase deactivating agent (E. coli RTEM β-lactamase [1])	turnovers before deactivation (E. coli RTEM β-lactamase [1])	kcat of corresponding N-acyl derivative of 6-aminopenicillanic acid (E. coli RTEM β-lactamase [2]; value belongs to the parent (non-sulfone) penicillin corresponding to the listed sulfone, substrate capability for β-lactamase)	kcat of corresponding N-acyl derivative of 6-aminopenicillanic acid (E. coli RTEM β-lactamase [2]) [s⁻¹]
COc1cccc(OC)c1C(=O)N[C@@H]1C(=O)N2[C@@H](C(=O)O)C(C)(C)S(=O)(=O)[C@H]12 [methicillin sulfone]	~ 1 min	effective deactivating agents, though less effective than quinacillin sulfone	22,500		
CC1(C)S[C@@H]2[C@H](NC(=O)c3nc4ccccc4nc3C(=O)O)C(=O)N2[C@H]1C(=O)O [quinacillin]				lowest kcat value	
CC1(C)[C@H](C(=O)O)N2C(=O)C[C@H]2S1(=O)=O [CP-45, 899, 6-des-aminopenicillanic acid sulfone, reference compound]			4,500		40
Cc1onc(-c2ccccc2Cl)c1C(=O)N[C@@H]1C(=O)N2[C@@H](C(=O)O)C(C)(C)S(=O)(=O)[C@H]12 [cloxacillin sulfone]	1.5 min	effective deactivating agents, though less effective than quinacillin sulfone	17,000		
CC1(C)[C@H](C(=O)O)N2C(=O)[C@@H](NC(=O)c3nc4ccccc4nc3C(=O)O)[C@H]2S1(=O)=O [quinacillin sulfone]	~ 1 min	most effective of the four compounds listed	400		
